Results: patent US10552557B2, “Freshening compositions and devices comprising same” (The Procter & Gamble Company, priority 2014, dated 2020)

Assay: Blocker Index (BI), expert graders, isovaleric acid malodorous swatch treated with test material
Excerpt: Blocker materials suitable for use in consumer products of the present invention are chosen for their ability to decrease malodor, while not interfering with perception of a fragrance. Material selection is done by assigning two indices to a test sample material from two reference scales in order to rank odor strengths. The two reference scales are the Fragrance Fidelity Index (FFI) scale and the Blocker Index (BI) scale. The FFI ranks the ability of the test sample material to impart a perceivable odor which could cause interference when combined with another fragrance and the BI ranks the ability of the test sample material to reduce malodor perception. The two methods for assigning the indices to a test sample on the FFI and the BI reference scales are given below.
The first step in the method for assigning a BI to a test sample material on the BI reference scale is to create the BI reference swatches. […] Fabric swatches for this test are white knit polycotton (4 inch×4 inch) swatches from EMC ordered as PC 50/50. The supplier is instructed to strip the swatches first, stripping involves washing twice with a fragrance-free detergent and rinsing three times.
The BI scale contains one clean swatch with no malodor applied. […] These solutions are pipetted to the middle of the swatches. […] After drying for 30 minutes in a vented hood, the swatches are wrapped in aluminum foil to prevent odor contamination to the treated swatch. A clean untreated swatch is also included as the lowest anchor point of reference for malodor strength on the BI scale. The BI reference scale swatches should be used within 0.5 to 12 hours and discarded after 12 hours. The swatches are used as scale anchor points when graders evaluate a test sample(s) and are assigned a Blocker Index (BI) as show in Table 12.
The perfumer/expert grader is asked to rank order swatches according to a scale between 0 and 3.
The reference swatches represent the 0, 1, 2, and 3 BIs on the BI reference scale, Table 12. The expert grader should familiarizes him/herself with the strength of the odor on the BI reference swatches by sniffing each one starting at 0 (the lowest odor strength) and ending at 3 (the highest odor strength). This should be done prior to evaluating the swatch treated with the test material.
To evaluate the BI, the test material is applied to a malodorous swatch to determine how well the test material blocks the malodor. […] After drying the malodorous swatch a known concentration of test material solution, between 1 ppm and 100 ppm is pipetted onto the malodorous swatch. […] It is sometimes necessary to evaluate several levels of the test material between about 1 and about 100 ppm to determine the BI.
At least two perfumers/expert graders are used to assign the BI to the test sample. […] The test sample swatch is assigned a BI at or between numbers on the BI in table.

[1] = Conc 10 ppm test material on isovaleric acid malodorous swatch
[2] = Conc 50 ppm test material on isovaleric acid malodorous swatch

CC1(C)CCc2ccc(CCC=O)cc21
BI [1]: 1.5
BI [2]: 2.7

CC1CCC2(C(C)C)CC(C)OC2C1 (stereo not shown)
BI [1]: 2.0
BI [2]: 2.2

CCC(=O)OC1CC2C3C=CCC3C1C2(C)C (stereo not shown) [8,8-dimethyl-3a,4,5,6,7,7a-hexahydro-1H-4,7-methanoinden-6-yl propionate]
BI [1]: 1.5
BI [2]: 2.2

CC(C)CC(=O)O [isovaleric acid, reference compound]
BI of reference swatch, Ave (2 μL 0.08% solution, all graders (Table 10)): 1.0
